Laboratory results reported in US20060029548A1, “Methods of diagnosing, monitoring and treating pulmonary diseases” (priority 2004, published 2006).
Values joined by “and” are separate entries in the source; they are usually repeats but may differ in a detail not shown here. Equal values may be shown once.

Columns and labels:
Format in all cases: in vivo
[1] = test system: human subjects (perception of dyspnoea); experiment: Borg score for dyspnoea before and after inhalation challenge; parameters: key to ΔBorg (change in Borg score before and after challenge): Borg score after minus before challenge; 0–10 scale
Excerpt: (§1) The clinical study described in Examples 2-4 was randomized, double blind, crossover, and controlled. Each subject attended the laboratory on three occasions. Procedures on the initial screening visit included obtaining information about the study and a number of investigations in the following order: medical history, lung function, reversibility and skin prick testing. At visit 2 and 3, separated by 2-7 days, the subjects were subjected to either an ATP or AMP challenge in a randomized fashion such that, by the end of the study, each patient had been tested with both compounds. Before, immediately after, and 30 minutes after the challenge, lung function and Borg score for dyspnoea were determined, and symptoms other than dyspnoea were recorded.
The modified Borg scale used to quantitate dyspnoea in the clinical study described in Examples 2-4 was a category scale in which words describing degrees of breathlessness were anchored to numbers between 0 and 10. The subjects were asked to select a number whose corresponding words most appropriately described their perception of breathlessness. The change in dyspnoea was expressed as ΔBorg, which was the difference in Borg score before and after the challenge [Rutgers et al. (2000) Eur. Respir. J. 16:486-490; Burdon et al. (1982) Am. Rev. Respir. Dis. 126:825-828]. Terms and associated numbers used in assessing Borg score were as follows: 0, “nothing at all”; 0.5, “very, very slight”; 1, “very slight”; 2, “slight”; 3, “moderate”; 4, “somewhat severe”; 5, “severe”; 7, “very severe”; 9, “very, very severe (almost maximal)”; and 10, “maximal” [Burdon et al. (1982)].
(§2) For the tests described in Examples 2-4, ATP and AMP (Sigma, Gillingham, Dorset, England) were dissolved freshly in normal saline solution to produce a range of doubling concentrations from 0.227-929 umol/ml for ATP and from 0.138-1152 umol/ml for AMP and immediately used for bronchial challenge. The solutions were administered using a breath-activated dosimeter (Mefar, Bovezzo, Italy) with an output of 10 ul per inhalation [Prieto et al. (2003) Chest 123:993-997]. The subjects, while wearing a nose clip, inhaled (via a mouthpiece) five breaths of normal saline, followed by sequential doubling concentrations of either ATP or AMP from functional residual capacity to total lung capacity. FEV1 was measured from two minutes after the fifth inhalation of normal saline until there was a fall in FEV1 of ≧20% of its value recorded after saline inhalation or until maximal concentration of either ATP or AMP was inhaled. The provocative dose causing a 20% decrease in FEV1 (PD20) was calculated by interpolation of the logarithmic dose response curve.

[2] = test system: human subjects (cough, throat irritation, sputum); experiment: Symptoms other than dyspnoea recorded after inhalation challenge; settings: all subjects
Excerpt: as §1, §2

[3] = test system: human subjects (airway responsiveness, FEV1); experiment: Inhalation challenge test: airway responsiveness measured as change in FEV1 (PD20); settings: for PD20 geometric mean: non-responders excluded; for PD20: individual subjects
Excerpt: as §1
In the clinical study described in Examples 2-4, spirometric tests were performed using a dry spirometer (Vitalograph Ltd., Buckingham, England) and the best value of the three expiratory manoeuvers was expressed as liters and percentage of the predicted.
as §2
All data from the analyses described in Examples 2-4 were performed with a software package (GraphPad Prism Software, Inc., USA). The significance of differences among groups was assessed by Student's t-test, and analysis of categorical variables was examined by Chi-square test. Pearson's correlation coefficient and linear regression analysis were used to analyze the relationship between the percentage decreases in FEV1 and Borg score. The PD20 values for ATP and AMP were logarithmically transformed to normalize their distribution and presented as geometric means. All other numerical variables were expressed as the mean±SEM and significance was defined as p<0.05.

[4] = test system: vagal C fiber; experiment: Vagal activation experiments in dogs: action potentials in vagal C fibers; settings: anesthetized dog, rapid bolus; simultaneous recording with RAR-containing fiber
Description: (§3) The experiments described in Example 5 were performed essentially as described in Pelleg et al. [(1996) J. Physiol. 490(1):265-275] and U.S. Pat. No. 5,874,420, both of which are incorporated herein by reference in their entirety. In brief, they were performed on anesthetized (sodium pentobarbitone, 30 mg kg^−1 plus 3 mg kg^−1 h^−1, intravenous) dogs artificially ventilated with room air using a respirator. Arterial blood pH, PO2, PCO2, body temperature were maintained as described in U.S. Pat. No. 5,874,420. A peripheral vein was cannulated for the administration of physiological saline solution and maintenance doses of anesthetic. Catheters were introduced via the femoral vein and left atrial appendage and positioned in the right atrium and left atrium for the administration of test solutions. The chest was opened by a longitudinal sternotomy. The right cervical vagosympathetic trunk was exposed by a midcervical longitudinal section of the skin and careful dissection of neck muscles and connective tissues. The edges of the cut skin were elevated and secured to create a trough which was filled with warm (about 37° C.) mineral oil. A section of the vagosympathetic trunk was placed on a small plate of black Perspex™ and fine branches were separated from the main bundle by careful dissection using microsurgical tools and a dissecting microscope (Model F212, Jenopik Jena, GmbH, Germany).
Extracellular neural action potentials were recorded using a custom-made bipolar electrode that contained two platinum-iridium wires (1.25 cm×0.0125 cm) connected to a high-impedence first-stage differential amplifier (model AC8331, CW, Inc., Ardmore, Pa.) via a shielded cable. The output of the first-stage amplifier was fed into a second-stage differential amplifier (model BMA-831/C, CWE, Inc.). Isolated fibers were laid on the pair of platinum-iridium wires. Vagal C fibers with chemosensitive endings have a sparse irregular discharge which is not associated with cardiac or respiratory cycles. […]
ATP (3 umole kg^−1) and capsaicin (10 ug kg^−1) were administered as a rapid bolus into the right atrium (5 ml test solution+5 ml physiological saline flush). α,βmATP and β,γmATP were given as one low dose only (0.75 umol kg^−1) to avoid systemic side effects. […] To exclude involvement of baroreceptors in the recorded neural activity, the latter was monitored before and after a bolus of nitroglycerine (1 mg; intravenous). […]

[5] = test system: pulmonary RAR-containing afferent nerve fiber; experiment: Vagal activation experiments in dogs: action potentials in RAR-containing fibers; settings: anesthetized dog, rapid bolus; ATP 6 μmol/kg, capsaicin 10 ug kg−1, analogs 0.75 umol kg−1
Description: as §3
Extracellular neural action potentials were recorded using a custom-made bipolar electrode that contained two platinum-iridium wires (1.25 cm×0.0125 cm) connected to a high-impedence first-stage differential amplifier (model AC8331, CW, Inc., Ardmore, Pa.) via a shielded cable. The output of the first-stage amplifier was fed into a second-stage differential amplifier (model BMA-831/C, CWE, Inc.). Isolated fibers were laid on the pair of platinum-iridium wires. Vagal C fibers with chemosensitive endings have a sparse irregular discharge which is not associated with cardiac or respiratory cycles. Confirmation of fiber type was obtained by: first monitoring the response to capsaicin (10 microg kg^−1, intra-right atrial bolus); second, monitoring the response to mechanical stimulation of the lungs using gentle probing with forceps as well as inflation of the lungs to 2-3 times the tidal volume; and third, determining the speed of conduction using a stimulating electrode positioned distal to the initial recording site. Nerve fibers with RAR on their pulmonary endings, spontaneously fire a brief (i.e., short lasting) volley of action potentials associated with peak tracheal pressure during each respiratory cycle.
[…] Volume controls consisted of either 5 ml+5 ml or 1 ml+3 ml physiological saline. All injections were performed in the same mode by the same person. To exclude involvement of baroreceptors in the recorded neural activity, the latter was monitored before and after a bolus of nitroglycerine (1 mg; intravenous).
The procedure described in Example 1 was used to measure action potentials in dog pulmonary fibers with RAR on their terminals following administration of various agents. RAR activation generated a brief volley of action potentials associated with each respiratory cycle that was seen before as well as after administration of ATP (FIG. 7). […] Thus ATP modified the activity of the RAR-containing fiber manifested in their transient loss of the rapid adaptability characteristic.

Nc1ncnc2c1ncn2[C@@H]1O[C@H](COP(=O)(O)O)[C@@H](O)[C@H]1O [AMP, adenosine 5′-monophosphate]
ΔBorg (change in Borg score before and after challenge) ([1]; COPD): 0.6 | Borg score after challenge (at PD20) ([1]; COPD patients): 0.8 | Borg score after challenge (at PD20) ([1]; patients with asthma): 2.5 | ΔBorg (change in Borg score before and after challenge) ([1]; patients with asthma): 2.3 | subjects who coughed after challenge [2]: 48% | subjects who had sputum after challenge [2]: 10% | subjects who had throat irritation after challenge [2]: 53% | patients with bronchoconstriction ([3]; 19 smoking subjects (seven healthy smokers, seven smokers at risk, five COPD)): 21% | PD20 geometric mean ([3]; COPD (n = 7)): 210.6 µmol/mL | patients who responded to challenge ([3]; COPD patients): 33% | PD20 geometric mean (range) ([3]; all subjects who had airway responsiveness): 82.9 (0.9-576.0) umol/ml | PD20 geometric mean ([3]; asthma (n = 10)): 113.5 µmol/mL | response to challenge ([3]; healthy non-smokers, no change in FEV1 or reduction of less than 20%): negative | subjects who responded to challenge ([3]; healthy smokers): 14% | PD20 geometric mean ([3]; healthy smokers (n = 7)): 74.6 µmol/mL | PD20 ([3]; COPD (n = 7)): 0.9 μmol/ml and >1152 μmol/ml (4×) and 72.0 μmol/ml and 168.4 μmol/ml | PD20 ([3]; asthma (n = 10)): 576.0 µmol/mL and 3.46 µmol/mL and 54.7 µmol/mL and 559.3 µmol/mL and 461.7 µmol/mL and 176.0 µmol/mL and >1152 µmol/mL and 15.8 µmol/mL and 556.4 µmol/mL and 72.0 µmol/mL | PD20 ([3]; healthy smokers (n = 7)): >1152 μmol/ml (6×) and 74.6 μmol/ml | PD20 ([3]; non-smokers (n = 10), provocative dose causing 20% decrease in FEV1): >1152 µmol/mL | PD20 ([3]; smokers at risk (n = 7)): >1152 μmol/ml (6×) and 576.0 μmol/ml | PD20 geometric mean ([3]; non-smokers (n = 10)): >1152 µmol/mL | subjects responsive to challenge ([3]; of the 40 subjects in the study): 32.5% | patients who responded to challenge ([3]; patients with asthma): 90% | ΔFEV1 (decrease in FEV1 as percentage of baseline FEV1) ([3]; patients with asthma): 22% | subjects who responded to challenge ([3]; smokers at risk): 14% | PD20 geometric mean ([3]; smokers at risk (n = 7)): 576.0 µmol/mL

Nc1ncnc2c1ncn2[C@@H]1O[C@H](COP(=O)(O)OP(=O)(O)CP(=O)(O)O)[C@@H](O)[C@H]1O [β,γmATP, β,γ-methylene ATP]
effect on action potentials of C fibers [4]: acted similarly to ATP | effect on action potentials of RAR-containing fibers [5]: acted similarly to ATP

COc1cc(CNC(=O)CCCC/C=C/C(C)C)ccc1O [capsaicin]
effect on action potentials of C fibers [4]: stimulated only the former | effect on action potentials of RAR-containing fibers [5]: did not alter the firing pattern
